# Key:
# Mitsuokella multiacidus [1] = assay: Example 15: short-chain fatty acid production by isolated strain; format: cell-based
# Procedure: (§1) The strains Megasphaera elsdenii and Mitsuokella multiacidus having grown in Example 14 were anaerobically incubated in PYF media (100 mL) with 1% w/v sodium gluconate added thereto, at 39° C. for 24 hours. The cultures were analyzed on the concentration of the short-chain fatty acids (mM) therein in the same manner as in Example 12.
# Megasphaera elsdenii [2] = assay: as above; format: cell-based
# Procedure: as §1
# [3] = test system: new born broiler chicks (Chunky); assay: Test Example 3: feeding / drinking water test in broiler chicks, 8 weeks; format: in vivo, chickens; conditions: 0.5% in feed and 0.14% in drinking water vs chicks not having taken sodium gluconate
# Procedure: The feeds of Example 10 and Comparative Example 4 and the drinking water prepared in Example 11 were fed to groups of new born broiler chicks (Chunky), each group being composed of 50 chicks (25 male chicks and 25 female chicks), continuously for 8 weeks. At the start of the feeding test, on two weeks, 4 weeks and 6 weeks after the start of the test, and at the end of the test, that is, five times in all, the chicks were weighed individually, and an increase in the body weight was calculated for every group. In each group, checked was the feed intake during the period between the days on which the body weight was measured, and the feed conversion ratio was calculated from the overall body weight increase and the overall feed intake.
# anaerobic microorganisms = assay: Example 14: number of colonies of anaerobic microorganisms in PYF culture of pig intestinal filtrate; format: cell-based, pigs
# Procedure: (§2) Pigs were acclimated for 1 week, and the contents of their large intestines were taken out. The contents were diluted 5-fold with an anaerobic phosphate buffer (50 mM, pH 6.5), and then filtrated through 4-layered gauze. One mL of the resulting filtrate was inoculated on a PYF medium (100 mL) with 1 w/v % sodium gluconate added thereto, and incubated in an anaerobic condition at 39° C.
# (§3) During incubation, 5 mL of a sterilized 10 w/v % aqueous solution of sodium gluconate were put into the medium at intervals of 48 hours.
# (§4) The culture without sodium gluconate and the culture with sodium gluconate added thereto were sampled on 0, 8, 24, 48, 96 and 144 hours in a germ-free condition, and the samples were diluted to 10^−5. 0.05 mL of each dilution were inoculated on BL agar media (manufactured by Nissui), and anaerobically incubated at 37° C. for 48 hours. The number of colonies of anaerobic microorganisms having grown in agar plates was counted (Table 7).
# Mitsuokella multiacidus [4] = assay: Example 14: count of isolated strain in 144-hour culture; format: cell-based
# Procedure: as §2, §3, §4
# (§5) At the same time, according to the properties of the colonies thus grown, strains having grown only on the agar plate inoculated with the 144-hour sample of sodium gluconate-added culture were isolated, and they were counted and identified (Table 8).
# Megasphaera elsdenii [5] = assay: as above; format: cell-based
# Procedure: as §2, §3, §4, §5
# [6] = test system: contents of pig large intestines; assay: Example 13: fermentation gas generated in culture of pig large intestine contents; format: cell-based, pigs
# Procedure: The amount of fermentation gas generated in the cultivation of Example 12 was measured by putting a glass syringe equipped with an injection needle into a head space of the serum bottle, sucking the gas until normal pressure is reached and measuring the sucked gas by a syringe scale.
# The composition of the gas was analyzed for carbon dioxide, methane, hydrogen and hydrogen sulfide by TCD and FPD gas chromatography (Ushida, et al.; Jpn. J. Zootech. Sci., 53, 412–416, 1982, and Anim. Sci. Technol., 69, 571–575, 1998).
# [7] = test system: contents of pig large intestines; assay: Example 12: static culture of pig large intestine contents, acids and ammonia; format: cell-based, pigs
# Procedure: Three pigs were acclimated for 1 week, and the contents of their large intestines were taken out. The contents were diluted 5-fold with an anaerobic phosphate buffer (50 mM, pH 6.5), and then filtrated through 4-layered gauze. 25 mL of the resulting filtrate was put into serum bottles of 120 mL volume, and the gas phase therein was purged with a mixed gas of nitrogen/carbon dioxide (80/20). The bottles were sealed with butyl rubber stoppers and aluminum seals, and left for static culture at 39° C. for 24 hours (n=3).
# Prior to putting the intestinal filtrate into the serum bottles, 1 w/v % glucose (positive control) and 1 w/v % sodium gluconate were put in the bottles, except for an additive-free control (negative control).
# After the intestinal filtrate was thus cultivated, 1 mL of 6 N hydrochloric acid was added thereto to stop fermentation. The resulting cultures were analyzed as follows:
# The cultures were pre-treated according to the Ushida and Sakata's conditions (Anim. Sci. Technol., 69, 571–575, […]), and then were analyzed on the concentration of short-chain fatty acids, succinic acid and lactic acid therein by HPLC and the concentration of ammonia therein by the indophenol method (Weatherburn, Analytic Chem., 39, 971–974, 1967). Subtracting the concentration before cultivation from that after cultivation gives the amount (mM) generated through fermentation.
# piglets = assay: Test Example 4: feeding test in piglets, 8 weeks, sodium gluconate dose series; format: in vivo, pigs; conditions: for Body Weight Increase ± S.D. / Feed Conversion Ratio ± S.D.: piglets about 20 kg, 8 weeks; for Body Weight Increase (index %) / Feed Conversion Ratio (index %): control with no additive = 100
# Text: To a feed for latter artificial milk suckling-stage piglets (manufactured by Nippon Kagaku Shiryo Kyokai) and to a feed for raising piglets (manufactured by Nippon Kagaku Shiryo Kyokai), added were 0.05, 0.1, 0.25, 0.5 and 1.0%, relative to the weight of the feeds, of sodium gluconate.
# The above-mentioned feeds were fed to groups of piglets (body weight: about 20 kg), each group being composed of 4 piglets (2 male piglets and 2 female piglets), continuously for 8 weeks (the feed for latter artificial milk for the former 2 weeks and the feed for raising piglets for the latter 6 weeks). During the period of the feeding test, each of the piglets was weighed every week, and an increase in the body weight was calculated for every group. In each group, checked was the feed intake during the period between the days on which the body weight was measured, and the feed conversion ratio was calculated.
# This test was repeated 10 times for the group not having taken sodium gluconate and the group having taken 0.5% sodium gluconate, but 5 times for the other groups having taken sodium gluconate in different concentrations. The obtained body weight increases and the feed conversion ratios were averaged for every group.
# [8] = PYF medium with 1% w/v sodium gluconate, 39° C., 24 hours
# [9] = sodium gluconate added minus control with no additive
# [10] = 144-hour sample of sodium gluconate-added culture
# [11] = cultivation of Example 12, 1 w/v % additive, n=3
# [12] = after cultivation, 1 w/v % additive, 39° C., 24 hours, n=3
# [13] = index based on the data before cultivation of 100
# [14] = 0.05% added to feed, 5 test cycles
# [15] = 0.1% added to feed, 5 test cycles
# [16] = 0.25% added to feed, 5 test cycles
# [17] = 0.5% added to feed, 10 test cycles
# [18] = 1.0% added to feed, 5 test cycles
smiles,measurement,setting,value
"O=C([O-])[C@H](O)[C@@H](O)[C@H](O)[C@H](O)CO.[Na+] [Sodium Gluconate, sodium gluconate]",Acetic Acid,Mitsuokella multiacidus [1]; [8],9.9 mM
same,Butyric Acid,Mitsuokella multiacidus [1]; [8],1.0 mM
same,Propionic Acid,Mitsuokella multiacidus [1]; [8],43.1 mM
same,short-chain fatty acids produced by Mitsuokella multiacidus utilizing sodium gluconate,Mitsuokella multiacidus [1]; in words,produced a lot of acetic acid and propionic acid
same,"Acetic Acid, Difference",Mitsuokella multiacidus [1]; [9],7.0 mM
same,"Butyric Acid, Difference",Mitsuokella multiacidus [1]; [9],0.7 mM
same,"Propionic Acid, Difference",Mitsuokella multiacidus [1]; [9],36.1 mM
same,Acetic Acid,Megasphaera elsdenii [2]; [8],8.7 mM
same,Butyric Acid,Megasphaera elsdenii [2]; [8],4.9 mM
same,Propionic Acid,Megasphaera elsdenii [2]; [8],0.8 mM
same,short-chain fatty acids produced by Megasphaera elsdenii utilizing sodium gluconate,Megasphaera elsdenii [2]; in words,produced a lot of acetic acid and butyric acid
same,"Acetic Acid, Difference",Megasphaera elsdenii [2]; [9],2.9 mM
same,"Butyric Acid, Difference",Megasphaera elsdenii [2]; [9],3.5 mM
same,"Propionic Acid, Difference",Megasphaera elsdenii [2]; [9],-0.8 mM
same,feed efficiency improved by,[3],6%
same,number of anaerobic microorganisms,"anaerobic microorganisms; 0 hrs after start of incubation, 1 w/v % in PYF medium, 39° C.",<6.3 logarithmic number of the cells in 1 g of culture
same,number of anaerobic microorganisms,anaerobic microorganisms; 8 hrs after start of incubation,8.9 logarithmic number of the cells in 1 g of culture
same,number of anaerobic microorganisms,anaerobic microorganisms; 24 hrs after start of incubation,10.7 logarithmic number of the cells in 1 g of culture
same,number of anaerobic microorganisms,anaerobic microorganisms; 48 hrs after start of incubation,8.7 logarithmic number of the cells in 1 g of culture
same,number of anaerobic microorganisms,anaerobic microorganisms; 96 hrs after start of incubation,10.4 logarithmic number of the cells in 1 g of culture
same,number of anaerobic microorganisms,anaerobic microorganisms; 144 hrs after start of incubation,7.7 logarithmic number of the cells in 1 g of culture
same,total number of anaerobic microorganisms,anaerobic microorganisms; in words,increased
same,number of Mitsuokella multiacidus,Mitsuokella multiacidus [4]; [10],7.2 logarithmic number of the cells in 1 g of culture
same,Mitsuokella multiacidus number,Mitsuokella multiacidus [4]; in words,observed to increase
same,number of Megasphaera elsdenii,Megasphaera elsdenii [5]; [10],6.4 logarithmic number of the cells in 1 g of culture
same,Megasphaera elsdenii number,Megasphaera elsdenii [5]; in words,observed to increase
same,Carbon Dioxide,[6]; [11],4330 µL/g
same,Hydrogen,[6]; [11],211.99 µL/g
same,Hydrogen Sulfide,[6]; [11],0.09 µL/g
same,Methane,[6]; [11],30 µL/g
same,Total Gas,[6]; [11],6880 µL/g
same,hydrogen sulfide in the cultures,"[6]; in words, compared with cultures with no additives",greatly reduced
same,Acetic Acid,[7]; [12],161.90 mM
same,Ammonia,[7]; [12],5.79 mM
same,Butyric Acid,[7]; [12],70.36 mM
same,Lactic Acid,[7]; [12],0 mM
same,Propionic Acid,[7]; [12],103.25 mM
same,Succinic Acid,[7]; [12],0 mM
same,"lactic acid, succinic acid and ammonia in the cultures",[7]; in words,greatly reduce
same,"concentration of acetic acid, propionic acid and butyric acid in the cultures","[7]; in words, compared with cultures without sodium gluconate",greatly increased
same,Acetic Acid (index),[7]; [13],(404)
same,Ammonia (index),[7]; [13],(74)
same,Butyric Acid (index),[7]; [13],(1305)
same,Lactic Acid (index),[7]; [13],(0)
same,Propionic Acid (index),[7]; [13],(941)
same,Succinic Acid (index),[7]; [13],(0)
same,Body Weight Increase ± S.D.,piglets; [14],39.96 ± 5.83 kg
same,Feed Conversion Ratio ± S.D.,piglets; [14],2.62 ± 0.15
same,Body Weight Increase (index %),piglets; 0.05% added to feed,(104) %
same,Feed Conversion Ratio (index %),piglets; 0.05% added to feed,(97) %
same,Body Weight Increase ± S.D.,piglets; [15],40.92 ± 4.49 kg
same,Feed Conversion Ratio ± S.D.,piglets; [15],2.58 ± 0.11
same,Body Weight Increase (index %),piglets; 0.1% added to feed,(106) %
same,Feed Conversion Ratio (index %),piglets; 0.1% added to feed,(96) %
same,Body Weight Increase ± S.D.,piglets; [16],41.26 ± 3.44 kg
same,Feed Conversion Ratio ± S.D.,piglets; [16],2.55 ± 0.17
same,Body Weight Increase (index %),piglets; 0.25% added to feed,(107) %
same,Feed Conversion Ratio (index %),piglets; 0.25% added to feed,(94) %
same,Body Weight Increase ± S.D.,piglets; [17],40.43 ± 4.40 kg
same,Feed Conversion Ratio ± S.D.,piglets; [17],2.63 ± 0.12
same,Body Weight Increase (index %),piglets; 0.5% added to feed,(105) %
same,Feed Conversion Ratio (index %),piglets; 0.5% added to feed,(97) %
same,Body Weight Increase ± S.D.,piglets; [18],39.28 ± 2.58 kg
same,Feed Conversion Ratio ± S.D.,piglets; [18],2.74 ± 0.05
same,Body Weight Increase (index %),piglets; 1.0% added to feed,(102) %
same,Feed Conversion Ratio (index %),piglets; 1.0% added to feed,(101) %

# — US7186544B2, “Agents for promoting fattening of animals and method of promoting fattening” (Fuso Chemical Co., Ltd., priority 1999, dated 2007)
